Laboratory results as given in patent US9920075B2, “Triazolopyridine and triazolopyrimidine inhibitors of myeloperoxidase” (BRISTOL-MYERS SQUIBB COMPANY, priority 2014, dated 2018).
Where two headings read alike, the source gives them in different places. Blank lines part the entries; values can stand above or below the molecule they belong to.

Experiments:
Type in all cases: biochemical
EPX = biological target: T1, EPX (Homo sapiens, UniProt P11678); assay: EPX bromination assay
T1 construct: purchased Lee Biosolutions 342-60
T1 sequence (P11678 251-715 limits assumed): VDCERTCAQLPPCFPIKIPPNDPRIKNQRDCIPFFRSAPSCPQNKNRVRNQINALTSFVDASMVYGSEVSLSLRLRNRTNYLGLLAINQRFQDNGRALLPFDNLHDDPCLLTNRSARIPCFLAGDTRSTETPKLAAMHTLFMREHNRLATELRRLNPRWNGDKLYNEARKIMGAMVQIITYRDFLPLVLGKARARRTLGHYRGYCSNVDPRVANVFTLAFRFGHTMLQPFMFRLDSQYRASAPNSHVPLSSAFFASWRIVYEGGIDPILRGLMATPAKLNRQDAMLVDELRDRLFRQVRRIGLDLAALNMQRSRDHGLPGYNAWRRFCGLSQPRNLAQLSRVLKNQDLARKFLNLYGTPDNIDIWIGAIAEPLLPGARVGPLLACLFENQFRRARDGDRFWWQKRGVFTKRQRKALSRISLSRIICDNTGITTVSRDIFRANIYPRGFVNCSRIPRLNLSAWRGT
T1 sequence (P11678 140-250 limits assumed): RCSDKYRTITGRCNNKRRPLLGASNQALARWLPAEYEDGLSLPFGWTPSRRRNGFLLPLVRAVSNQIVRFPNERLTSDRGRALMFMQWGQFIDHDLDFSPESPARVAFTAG
Experimental: (§1) [formula] where A=minimal Y value (activity level of inhibited sample), B=maximal Y value (activity level of uninhibited sample), C=Log IC50, D=Hill Slope, x=concentration of inhibitor. EPX Bromination Assay
EPX bromination activity was measured in 100 mM KPi (pH 7.4) by monitoring the H2O2 catalyzed formation of 3-bromo tyrosine from tyrosine and potassium bromide. […] Enzyme and compound were preincubated for ten minutes at room temperature.
The reaction was allowed to proceed for 15 minutes, at which time it was quenched with 10 μL of 20% TCA. The final concentrations of all components were 0.3 μM EPX, 100 μM tyrosine, […], 5 μM H2O2, 0.1% DMSO, 2.0% TCA.
[formula] where A=minimal Y value (activity level of inhibited sample), B=maximal Y value (activity level of uninhibited sample), C=Log IC50, D=Hill Slope, x=concentration of inhibitor.
The column was maintained at 60° C. Samples were eluted using a gradient of 0%-100% B over 2.5 minutes, followed by equilibration with 100% A for 1 minute where A consisted of 0.1% TFA and B consisted of 90% MeOH/0.1% TFA at a flow rate of 0.6 mL/min.

myeloperoxidase (MPO) [1] = biological target: T2, myeloperoxidase (MPO) (Homo sapiens, UniProt P05164); assay: MPO peroxidation assay (Amplex Red assay); conditions: MPO peroxidation, 100 mM KPi pH 7.4, ten minute preincubation
T2 sequence (P05164 49-745): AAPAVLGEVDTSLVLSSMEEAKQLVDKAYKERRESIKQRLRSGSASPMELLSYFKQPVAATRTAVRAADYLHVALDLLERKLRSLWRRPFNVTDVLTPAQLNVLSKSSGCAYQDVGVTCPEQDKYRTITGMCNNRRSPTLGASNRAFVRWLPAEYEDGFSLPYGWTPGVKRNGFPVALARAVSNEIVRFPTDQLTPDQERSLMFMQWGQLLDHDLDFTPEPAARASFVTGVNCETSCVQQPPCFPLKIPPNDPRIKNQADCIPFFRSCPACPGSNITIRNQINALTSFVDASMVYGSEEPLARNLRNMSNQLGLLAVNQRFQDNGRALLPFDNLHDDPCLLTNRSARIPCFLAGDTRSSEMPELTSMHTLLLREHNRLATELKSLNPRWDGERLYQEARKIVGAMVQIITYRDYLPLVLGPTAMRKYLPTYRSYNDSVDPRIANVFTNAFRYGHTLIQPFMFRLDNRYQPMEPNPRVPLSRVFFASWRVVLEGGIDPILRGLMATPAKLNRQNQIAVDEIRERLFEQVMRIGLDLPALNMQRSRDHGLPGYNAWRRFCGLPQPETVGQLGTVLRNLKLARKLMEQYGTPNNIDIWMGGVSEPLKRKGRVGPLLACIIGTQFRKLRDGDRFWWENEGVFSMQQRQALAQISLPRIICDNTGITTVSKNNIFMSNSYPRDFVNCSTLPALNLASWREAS
Summary of the method: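 Enzyme and compound preincubated 10 min at room temperature in 100 mM KPi, pH 7.4. Amplex Red (200 μM) plus H2O2 (10 mM) mixture then added, peroxidase oxidation to fluorescent resorufin followed kinetically. IC50 from slope over 180–540 s, converted to % inhibition and fitted to a four-parameter Hill equation.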

myeloperoxidase (MPO) [2] = biological target: T2, myeloperoxidase (MPO); assay: MPO chlorination assay (APF assay)
Experimental: [formula] where A=minimal Y value (activity level of inhibited sample), B=maximal Y value (activity level of uninhibited sample), C=Log IC50, D=Hill Slope, x=concentration of inhibitor. MPO Chlorination Assay (APF Assay)
MPO chlorination activity was measured in 100 mM KPi (pH 7.4) by utilizing the non-fluorescent reagent Aminophenyl fluorescein (APF, Invitrogen Cat. #A36003). APF is cleaved by (—OCl) to yield the fluorescent compound fluorescein. […] Enzyme, inhibitor, and chloride were preincubated for ten minutes at room temperature.
After the ten minute preincubation, 25 μL of an APF mixture containing […], 120 mM NaCl and 10 μM H2O2 was added to the plate using the internal dispensing system of a Hammatsu FDSS 6000. […] IC50 values for inhibitors were calculated by taking the slope of the linear portion of the kinetic measurement (20 seconds to ˜80-120 secs).
IC50 values were calculated by determining the slope of the linear portion of the kinetic trace (180-540 secs), and using that calculated slope to determine % inhibition occurring at each concentration of inhibitor using the following equation:
as §1

[3] = EPX bromination, 100 mM KPi pH 7.4, ten minute preincubation, read-out: EPX IC50
[4] = read-out: Amplex Red Assay IC50 value
[5] = MPO chlorination, 100 mM KPi pH 7.4, ten minute preincubation, read-out: APF Assay IC50 value

Structure (SMILES): CCn1nc(COc2cc(N)nc3[nH]nnc23)cc1C(F)(F)F [Example 6, 7-((1-Ethyl-5-(trifluoromethyl)-1H-pyrazol-3-yl)methoxy)-3H-[1,2,3]triazolo[4,5-b]pyridin-5-amine]
IC50 (EPX; [3]): 70 nM
IC50 (myeloperoxidase (MPO) [1]; [4]): 20 nM
IC50 (myeloperoxidase (MPO) [2]; [5]): 130 nM

Structure (SMILES): COc1ccc(-n2nc(C)c(COc3cc(N)nc4[nH]nnc34)n2)cc1 [Example 11, 7-((2-(4-Methoxyphenyl)-5-methyl-2H-1,2,3-triazol-4-yl)methoxy)-3H-[1,2,3]triazolo[4,5-b]pyridin-5-amine]
IC50 (EPX; [3]): 40 nM
IC50 (myeloperoxidase (MPO) [1]; [4]): 20 nM
IC50 (myeloperoxidase (MPO) [2]; [5]): 170 nM

Structure (SMILES): Cn1ncc2c(COc3cc(N)nc4[nH]nnc34)cccc21 [Example 15, 7-((1-Methyl-1H-indazol-4-yl)methoxy)-3H-[1,2,3]triazolo[4,5-b]pyridin-5-amine]
IC50 (EPX; [3]): 40 nM
IC50 (myeloperoxidase (MPO) [1]; [4]): 20 nM
IC50 (myeloperoxidase (MPO) [2]; [5]): 60 nM

Structure (SMILES): Nc1cc(OCc2nn(-c3ccccc3)nc2C(F)F)c2nn[nH]c2n1 [Example 55, 7-((5-(Difluoromethyl)-2-phenyl-2H-1,2,3-triazol-4-yl)methoxy)-3H-[1,2,3]triazolo[4,5-b]pyridin-5-amine]
IC50 (EPX): 10 nM
IC50 (myeloperoxidase (MPO) [1]; Amplex Red Assay IC50 value): 10 nM
IC50 (myeloperoxidase (MPO) [2]): 80 nM

Further lines, results first:

IC50 (myeloperoxidase (MPO) [1]; [4]): 90 nM
IC50 (myeloperoxidase (MPO) [2]; [5]): 910 nM
Structure (SMILES): Cc1nn(-c2ccc(N3CCNC(=O)C3)nc2)nc1COc1cc(N)nc2[nH]nnc12 [Example 61, 4-(5-(4-(((5-Amino-3H-[1,2,3]triazolo[4,5-b]pyridin-7-yl)oxy)methyl)-5-methyl-2H-1,2,3-triazol-2-yl)pyridin-2-yl)piperazin-2-one]

IC50 (myeloperoxidase (MPO) [1]; [4]): 1080 nM
IC50 (myeloperoxidase (MPO) [2]; [5]): 640 nM
Structure (SMILES): Nc1cc(OCC2CCN(C3=NC=CCN3)CC2)c2nn[nH]c2n1 [Example 85, 7-((1-(1,6-Dihydropyrimidin-2-yl)piperidin-4-yl)methoxy)-3H-[1,2,3]triazolo[4,5-b]pyridin-5-amine]

IC50 (myeloperoxidase (MPO) [1]; [4]): 2030 nM
IC50 (myeloperoxidase (MPO) [2]; [5]): 1100 nM
Structure (SMILES): CS(=O)(=O)N1CCCCC1COc1cc(N)nc2[nH]nnc12 (centres unmarked) [Example 86, 7-((1-(Methylsulfonyl)piperidin-2-yl)methoxy)-3H-[1,2,3]triazolo[4,5-b]pyridin-5-amine]

IC50 (myeloperoxidase (MPO) [1]; [4]): 110 nM
IC50 (myeloperoxidase (MPO) [2]; [5]): 50 nM
Structure (SMILES): Nc1cc(OCc2cccnc2Cl)c2nn[nH]c2n1 [Example 90, 7-((2-Chloropyridin-3-yl)methoxy)-3H-[1,2,3]triazolo[4,5-b]pyridin-5-amine]
